Laboratory results: US7166296B2, “Pharmaceutical formulations and ligands for use therein; mimetics for UEA-1” (Sarlan, Ltd., priority 2001, dated 2007)

Tests used:
Set-up in all cases: species or system human
[1] = tested on: UEA-1 binding sites on Caco-2 cell membrane preparations; test: Single tier competition assay: inhibition of biotinylated UEA-1 binding, compound and biotinylated UEA-1 incubated together; conditions: library MSI 27; for IC50: read-out: Single Tier Assay IC50
How it was run: (§1)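 Plates coated with Caco-2 membrane preparation (10 μg/ml, carbonate buffer pH 9.6) and BSA-blocked. Single tier: compound and biotinylated UEA-1 incubated together overnight. Two tier: compound incubated overnight with membranes first, biotinylated UEA-1 added next. Bound UEA-1 detected by streptavidin-HRP/OPD, OD490.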

[2] = tested on: UEA-1 binding sites on Caco-2 cell membrane preparations; test: Two tier competition assay: compound incubated alone with membranes, biotinylated UEA-1 added in next step; conditions: library MSI 27; for IC50: read-out: Two Tier Assay IC50
How it was run: as §1

[3] = tested on: UEA-1 binding sites on Caco-2 cell membrane preparations; test: Competition assay of biotinylated UEA-1 binding, tier (single/two) not given; conditions: tier not printed, library TPI 1066
Experimental: The epithelial cell binding ability of compounds and mixtures obtained from synthetic combinatorial libraries was determined by competition assays. These assays were set up to measure the inhibition of binding of biotinylated UEA-1 to membrane preparations of the epithelial cell line Caco-2 (colon carcinoma cells-2), by compounds and mixtures of the combinatorial libraries. This cell line is a conventional model for epithelial cells.
Two competition inhibition assays were used in this case, namely single tier and two tier assays. These assays differed from each other in that in the single tier assay, the mixtures/compounds and the biotinylated UEA-1 were incubated together with the Caco-2 cell membrane preparations, while in case of the two-tier assay, the mixture/compounds were allowed to incubate alone with the cell membranes in the absence of biotinylated UEA-1, which was added in the next step. Addition of the extra step in the two-tier assay was to ensure that the compounds inhibiting the binding of biotinylated UEA-1 to the Caco-2 cell membranes were doing so by themselves binding to surface receptors on the Caco-2 cells and not to the biotinylated UEA-1. Each assay will be described in detail.
• 1. Confluent Caco-2 cell monolayers (grown in 75 cm^2 flasks for up to 1 week at 37° C. and 5% CO2) were washed twice in Dulbecco's PBS (DPBS). • 2. Cell monolayers were treated with 10 mM EDTA-DPBS for 5–10 min at 37° C. and cells were harvested by centrifugation at 1000 rpm for 5 min. • 3. Cells were washed 3 times in DPBS. • 4. […] The cells were homogenised for 30 sec. • 6. The homogenates were centrifuged in hard walled tubes at 40,000 rpm for 45 min at 4° C. • 7. […] The supernatant was removed and stored on ice. The procedure was repeated adding the second supernatant to the first. • 8. The protein concentration was determined using e.g. a Bio-Rad protein assay. • 9. All fractions were stored at −80° C. prior to use. Single Tier Assays: • 1. 96-well microtiter plates were coated with membrane preparations of Caco-2 cells either by allowing them to incubate on the plates for 2½ hours at room temperature or by incubating them overnight at 4° C. 100 μl of 10 μg/ml (in 0.05 M carbonate buffer, pH 9.6) of membrane preparation was added to each well. • 2. The plates were flicked out, patted dry and blocked with bovine serum albumin (BSA)/DPBS (200 μl/well) for 1 to 4 hours at room temperature after which they were washed three times in water. • 3. […] Control wells were also set up in which the Caco-2 cell membrane preparations were incubated with unconjugated UEA-1. […] Following overnight incubation the plates were washed thoroughly (3–6 times). The plates were flicked out, patted dry and biotinylated UEA-1 was detected with commercial Streptavidin conjugated to horseradish peroxidase (HRP) (CalBiochem). […] The plates were left to incubate for an hour at room temperature. • 6. The plates were then washed 3–6 times and the biotin-streptavidin binding was detected by adding an HRP substrate OPD (orthophenyl diamine) to each well. 100 μl/well of this substrate at a final concentration of 1.6 mg/ml was added to each well. Before adding to the wells, this substrate was activated by addition of 50 μl of 3% H2O2 per plate and the reaction was allowed to develop in the dark. • 7. The reaction was stopped by adding 50 μl of 4 N H2SO4 to each well after approximately 5–10 minutes or when sufficient colour had developed. The OD490 (absorbance at 490 nm) of each well was measured using a conventional 96 well plate reading spectrophotometer. Two Tier Assays: • 1. 96 well plates were coated with Caco-2 cell membrane preparations in the same manner as described in the single tier assay. • 2. […] 100 μl at these final concentrations were added to each well. • 4. The plates were then left to incubate overnight, a step that would allow the mixtures and compounds to interact with the Caco-2 cell membranes without the presence of the competitor (biotinylated UEA-1) itself. • 5. […]

[4] = 50 μg/ml, first pair of columns
[5] = 50 μg/ml, second pair of columns
[6] = 250 μg/ml, first pair of columns
[7] = 250 μg/ml, second pair of columns

| SMILES | Single Tier Assay IC50 [1] | IC50 [1] | Two Tier Assay IC50 [2] | IC50 [2] | Av % Inhibition [3, 4] | Av % Inhibition [3, 5] | Av % Inhibition [3, 6] | Av % Inhibition [3, 7] |
| --- | --- | --- | --- | --- | --- | --- | --- | --- |
| CCOC(=O)c1c(OC)cc(C(=O)O)cc1OC [compound 5, 4-ethoxycarbonyl-3,5-dimethoxybenzoic acid] | 168.10 µg/mL | 333 µM | 130.70 µg/mL | 259 µM | 16% | 39% | 54% | 51% |
| O=C(O)c1cc(O)cc(O)c1 [compound 8, 3,5-dihydroxybenzoic acid] | 125.00 µg/mL | 299 µM | 171.90 µg/mL | 412 µM | 59% | 0% | 85% | 50% |
| COc1ccc(C(=O)O)cc1OC [compound 10, 3,4-Dimethoxybenzoic acid] |  | 711 µM | 125.00 µg/mL | 356 µM | −65% | 24% | 41% | 66% |
| COc1cc(C(=O)O)cc(OC)c1OC [compound 20, 3,4,5-trimethoxybenzoic acid] |  | 212 µM |  | 212 µM | −121% | 52% | 24% | 75% |
| O=C(O)c1ccc(O)cc1 [compound 23, 4-Hydroxybenzoic acid] |  | 284 µM |  | 284 µM | 52% | 39% | 21% | 59% |
| COc1cc(C(=O)O)cc(OC)c1O [compound 25, Syringic acid] |  | 307 µM |  | 307 µM | −173% | 65% | 66% | 63% |
| COc1ccc(C(=O)O)cc1OC [compound 26, 3,4-Dimethoxybenzoic acid] | 125.00 µg/mL | 163 µM | 85.62 µg/mL | 112 µM | −116% | 39% | −2% | 56% |
